Reference: the supplement of paper PMC10307832

Key:
Experiment in all cases: relative viability (nuclei count vs DMSO), 5 days (fraction); higher = more cells survive
Mirin + Pemetrexed = compound: N=C1NC(=O)/C(=C/c2ccc(O)cc2)S1 [Mirin] + Nc1nc2[nH]cc(CCc3ccc(C(=O)N[C@@H](CCC(=O)O)C(=O)O)cc3)c2c(=O)[nH]1 [Pemetrexed] (partner 0.2 µM)
Summary of the method: (§1)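 One day after seeding in 1536-well plates, lung cancer cell lines were dosed by pin tool. Dosing was either single-drug or a fixed anchor-drug dose plus five library-drug doses (not always all listed) in √10 steps. After 5 days, nuclei were stained in one fix-and-stain step and counted on 4× images, and relative viability is the nuclei count of treated wells over that of vehicle wells, given as the median of duplicate plates.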

Mirin + Dasatinib = compound: N=C1NC(=O)/C(=C/c2ccc(O)cc2)S1 [Mirin] + Cc1nc(Nc2ncc(C(=O)Nc3c(C)cccc3Cl)s2)cc(N2CCN(CCO)CC2)n1 [Dasatinib] (partner 0.075 µM)
Summary of the method: as §1

Mirin + Navitoclax = compound: N=C1NC(=O)/C(=C/c2ccc(O)cc2)S1 [Mirin] + CC1(C)CCC(c2ccc(Cl)cc2)=C(CN2CCN(c3ccc(C(=O)NS(=O)(=O)c4ccc(N[C@H](CCN5CCOCC5)CSc5ccccc5)c(S(=O)(=O)C(F)(F)F)c4)cc3)CC2)C1 [Navitoclax] (partner 0.5 µM)
Summary of the method: as §1

Mirin + Foretinib = compound: N=C1NC(=O)/C(=C/c2ccc(O)cc2)S1 [Mirin] + COc1cc2c(Oc3ccc(NC(=O)C4(C(=O)Nc5ccc(F)cc5)CC4)cc3F)ccnc2cc1OCCCN1CCOCC1 [Foretinib] (partner 0.25 µM)
Summary of the method: as §1

HCC-366
relative viability (Mirin + Pemetrexed; first compound 0.25 µM): 0.178
relative viability (Mirin + Pemetrexed; first compound 0.7906 µM): 0.251
relative viability (Mirin + Pemetrexed; first compound 2.5 µM): 0.177
relative viability (Mirin + Pemetrexed; first compound 7.906 µM): 0.167
relative viability (Mirin + Pemetrexed; first compound 25 µM): 0.218
relative viability (Mirin + Dasatinib; first compound 0.25 µM): 0.677
relative viability (Mirin + Dasatinib; first compound 2.5 µM): 0.624
relative viability (Mirin + Dasatinib; first compound 7.906 µM): 0.588
relative viability (Mirin + Dasatinib; first compound 25 µM): 0.486
relative viability (Mirin + Navitoclax; first compound 0.25 µM): 1.1
relative viability (Mirin + Navitoclax; first compound 0.7906 µM): 1.02
relative viability (Mirin + Navitoclax; first compound 2.5 µM): 1.06
relative viability (Mirin + Navitoclax; first compound 7.906 µM): 1.1
relative viability (Mirin + Navitoclax; first compound 25 µM): 0.958
relative viability (Mirin + Foretinib; first compound 0.25 µM): 0.855
relative viability (Mirin + Foretinib; first compound 2.5 µM): 0.888
relative viability (Mirin + Foretinib; first compound 7.906 µM): 0.997
relative viability (Mirin + Foretinib; first compound 25 µM): 0.869

HCC-827
relative viability (Mirin + Pemetrexed; first compound 0.25 µM): 0.246
relative viability (Mirin + Pemetrexed; first compound 0.7906 µM): 0.258
relative viability (Mirin + Pemetrexed; first compound 2.5 µM): 0.224
relative viability (Mirin + Pemetrexed; first compound 7.906 µM): 0.254
relative viability (Mirin + Pemetrexed; first compound 25 µM): 0.282
relative viability (Mirin + Dasatinib; first compound 0.25 µM): 0.407
relative viability (Mirin + Dasatinib; first compound 0.7906 µM): 0.336
relative viability (Mirin + Dasatinib; first compound 2.5 µM): 0.301
relative viability (Mirin + Dasatinib; first compound 7.906 µM): 0.451
relative viability (Mirin + Dasatinib; first compound 25 µM): 0.334
relative viability (Mirin + Navitoclax; first compound 0.25 µM): 1.01
relative viability (Mirin + Navitoclax; first compound 0.7906 µM): 1
relative viability (Mirin + Navitoclax; first compound 2.5 µM): 1
relative viability (Mirin + Navitoclax; first compound 7.906 µM): 1.07
relative viability (Mirin + Navitoclax; first compound 25 µM): 1.27
relative viability (Mirin + Foretinib; first compound 0.25 µM): 1.03
relative viability (Mirin + Foretinib; first compound 0.7906 µM): 1.08
relative viability (Mirin + Foretinib; first compound 2.5 µM): 1.06
relative viability (Mirin + Foretinib; first compound 7.906 µM): 1.06
relative viability (Mirin + Foretinib; first compound 25 µM): 1.23

HOP-62
relative viability (Mirin + Pemetrexed; first compound 0.25 µM): 0.36
relative viability (Mirin + Pemetrexed; first compound 0.7906 µM): 0.286
relative viability (Mirin + Pemetrexed; first compound 2.5 µM): 0.316
relative viability (Mirin + Pemetrexed; first compound 7.906 µM): 0.288
relative viability (Mirin + Pemetrexed; first compound 25 µM): 0.361
relative viability (Mirin + Dasatinib; first compound 0.25 µM): 0.699
relative viability (Mirin + Dasatinib; first compound 0.7906 µM): 0.756
relative viability (Mirin + Dasatinib; first compound 2.5 µM): 0.743
relative viability (Mirin + Dasatinib; first compound 7.906 µM): 0.671
relative viability (Mirin + Dasatinib; first compound 25 µM): 0.56
relative viability (Mirin + Navitoclax; first compound 0.25 µM): 1.03
relative viability (Mirin + Navitoclax; first compound 0.7906 µM): 1.02
relative viability (Mirin + Navitoclax; first compound 2.5 µM): 0.955
relative viability (Mirin + Navitoclax; first compound 7.906 µM): 0.888
relative viability (Mirin + Navitoclax; first compound 25 µM): 1.43
relative viability (Mirin + Foretinib; first compound 0.25 µM): 1.17
relative viability (Mirin + Foretinib; first compound 0.7906 µM): 1.24
relative viability (Mirin + Foretinib; first compound 2.5 µM): 1.11
relative viability (Mirin + Foretinib; first compound 7.906 µM): 1.1
relative viability (Mirin + Foretinib; first compound 25 µM): 1.21

IA-LM
relative viability (Mirin + Navitoclax; first compound 0.25 µM): 0.835
relative viability (Mirin + Navitoclax; first compound 0.7906 µM): 0.899
relative viability (Mirin + Navitoclax; first compound 2.5 µM): 0.705
relative viability (Mirin + Navitoclax; first compound 7.906 µM): 0.498
relative viability (Mirin + Navitoclax; first compound 25 µM): 0.752
relative viability (Mirin + Foretinib; first compound 0.25 µM): 1.12
relative viability (Mirin + Foretinib; first compound 0.7906 µM): 1.07
relative viability (Mirin + Foretinib; first compound 2.5 µM): 1.23
relative viability (Mirin + Foretinib; first compound 7.906 µM): 0.757
relative viability (Mirin + Foretinib; first compound 25 µM): 1.09

LC-2-ad
relative viability (Mirin + Pemetrexed; first compound 0.25 µM): 0.266
relative viability (Mirin + Pemetrexed; first compound 0.7906 µM): 0.271
relative viability (Mirin + Pemetrexed; first compound 2.5 µM): 0.254
relative viability (Mirin + Pemetrexed; first compound 7.906 µM): 0.288
relative viability (Mirin + Pemetrexed; first compound 25 µM): 0.264
relative viability (Mirin + Dasatinib; first compound 0.25 µM): 0.588
relative viability (Mirin + Dasatinib; first compound 0.7906 µM): 0.504
relative viability (Mirin + Dasatinib; first compound 2.5 µM): 0.668
relative viability (Mirin + Dasatinib; first compound 7.906 µM): 0.386
relative viability (Mirin + Dasatinib; first compound 25 µM): 0.368
relative viability (Mirin + Navitoclax; first compound 0.25 µM): 0.452
relative viability (Mirin + Navitoclax; first compound 0.7906 µM): 0.673
relative viability (Mirin + Navitoclax; first compound 2.5 µM): 0.466
relative viability (Mirin + Navitoclax; first compound 7.906 µM): 0.36
relative viability (Mirin + Navitoclax; first compound 25 µM): 0.401
relative viability (Mirin + Foretinib; first compound 0.25 µM): 0.97
relative viability (Mirin + Foretinib; first compound 0.7906 µM): 1
relative viability (Mirin + Foretinib; first compound 2.5 µM): 0.988
relative viability (Mirin + Foretinib; first compound 7.906 µM): 0.907
relative viability (Mirin + Foretinib; first compound 25 µM): 0.759

LCLC-97TM1
relative viability (Mirin + Pemetrexed; first compound 0.25 µM): 0.161
relative viability (Mirin + Pemetrexed; first compound 0.7906 µM): 0.128
relative viability (Mirin + Pemetrexed; first compound 2.5 µM): 0.14
relative viability (Mirin + Pemetrexed; first compound 7.906 µM): 0.149
relative viability (Mirin + Pemetrexed; first compound 25 µM): 0.127
relative viability (Mirin + Dasatinib; first compound 0.25 µM): 0.773
relative viability (Mirin + Dasatinib; first compound 0.7906 µM): 0.816
relative viability (Mirin + Dasatinib; first compound 2.5 µM): 0.868
relative viability (Mirin + Dasatinib; first compound 7.906 µM): 0.737
relative viability (Mirin + Dasatinib; first compound 25 µM): 0.765
relative viability (Mirin + Navitoclax; first compound 0.25 µM): 0.314
relative viability (Mirin + Navitoclax; first compound 0.7906 µM): 0.515
relative viability (Mirin + Navitoclax; first compound 2.5 µM): 0.511
relative viability (Mirin + Navitoclax; first compound 7.906 µM): 0.194
relative viability (Mirin + Navitoclax; first compound 25 µM): 0.288
relative viability (Mirin + Foretinib; first compound 0.25 µM): 0.762
relative viability (Mirin + Foretinib; first compound 0.7906 µM): 0.848
relative viability (Mirin + Foretinib; first compound 2.5 µM): 0.89
relative viability (Mirin + Foretinib; first compound 7.906 µM): 0.991
relative viability (Mirin + Foretinib; first compound 25 µM): 0.703

LCLC-103H
relative viability (Mirin + Pemetrexed; first compound 0.25 µM): 0.441
relative viability (Mirin + Pemetrexed; first compound 0.7906 µM): 0.523
relative viability (Mirin + Pemetrexed; first compound 2.5 µM): 0.487
relative viability (Mirin + Pemetrexed; first compound 7.906 µM): 0.425
relative viability (Mirin + Pemetrexed; first compound 25 µM): 0.435
relative viability (Mirin + Dasatinib; first compound 0.25 µM): 0.44
relative viability (Mirin + Dasatinib; first compound 0.7906 µM): 0.469
relative viability (Mirin + Dasatinib; first compound 2.5 µM): 0.491
relative viability (Mirin + Dasatinib; first compound 7.906 µM): 0.348
relative viability (Mirin + Dasatinib; first compound 25 µM): 0.422
relative viability (Mirin + Foretinib; first compound 0.25 µM): 0.909
relative viability (Mirin + Foretinib; first compound 0.7906 µM): 0.825
relative viability (Mirin + Foretinib; first compound 2.5 µM): 0.839
relative viability (Mirin + Foretinib; first compound 7.906 µM): 0.955
relative viability (Mirin + Foretinib; first compound 25 µM): 0.8

LK-2
relative viability (Mirin + Pemetrexed; first compound 0.25 µM): 0.129
relative viability (Mirin + Pemetrexed; first compound 2.5 µM): 0.257
relative viability (Mirin + Pemetrexed; first compound 7.906 µM): 0.164
relative viability (Mirin + Pemetrexed; first compound 25 µM): 0.257
relative viability (Mirin + Dasatinib; first compound 0.25 µM): 0.275
relative viability (Mirin + Dasatinib; first compound 2.5 µM): 0.272
relative viability (Mirin + Dasatinib; first compound 7.906 µM): 0.194
relative viability (Mirin + Dasatinib; first compound 25 µM): 0.178
relative viability (Mirin + Navitoclax; first compound 0.25 µM): 0.752
relative viability (Mirin + Navitoclax; first compound 0.7906 µM): 0.625
relative viability (Mirin + Navitoclax; first compound 2.5 µM): 0.799
relative viability (Mirin + Navitoclax; first compound 7.906 µM): 0.588
relative viability (Mirin + Navitoclax; first compound 25 µM): 0.525
relative viability (Mirin + Foretinib; first compound 0.25 µM): 1.24
relative viability (Mirin + Foretinib; first compound 2.5 µM): 1.02
relative viability (Mirin + Foretinib; first compound 7.906 µM): 0.977
relative viability (Mirin + Foretinib; first compound 25 µM): 0.586

LOU-NH91
relative viability (Mirin + Pemetrexed; first compound 0.25 µM): 0.375
relative viability (Mirin + Pemetrexed; first compound 0.7906 µM): 0.389
relative viability (Mirin + Pemetrexed; first compound 2.5 µM): 0.357
relative viability (Mirin + Pemetrexed; first compound 7.906 µM): 0.399
relative viability (Mirin + Pemetrexed; first compound 25 µM): 0.376
relative viability (Mirin + Dasatinib; first compound 0.25 µM): 0.549
relative viability (Mirin + Dasatinib; first compound 0.7906 µM): 0.564
relative viability (Mirin + Dasatinib; first compound 2.5 µM): 0.535
relative viability (Mirin + Dasatinib; first compound 7.906 µM): 0.477
relative viability (Mirin + Dasatinib; first compound 25 µM): 0.65
relative viability (Mirin + Navitoclax; first compound 0.25 µM): 0.681
relative viability (Mirin + Navitoclax; first compound 2.5 µM): 0.673
relative viability (Mirin + Navitoclax; first compound 7.906 µM): 0.718
relative viability (Mirin + Navitoclax; first compound 25 µM): 0.76
relative viability (Mirin + Foretinib; first compound 0.25 µM): 0.937
relative viability (Mirin + Foretinib; first compound 0.7906 µM): 0.987
relative viability (Mirin + Foretinib; first compound 2.5 µM): 0.935
relative viability (Mirin + Foretinib; first compound 7.906 µM): 0.93
relative viability (Mirin + Foretinib; first compound 25 µM): 1.16
